# What was measured:
# MCF-7DOX cells [1] = assay: Drug uptake, MCF-7DOX; format: cell-based, human; conditions: 2 μM doxorubicin or [3H]-paclitaxel
# Experimental: (§1) FIG. 5 illustrates the effect of calphostin C (Cal-C) on drug uptake in MCF-7 (square symbols), MCF-7TAX (diamond symbols) and MCF-7DOX (triangular symbols) cells. After one-day growth, the cells were left untreated (closed symbols) or treated with 100 nM calphostin C for 2 h with light activation (open symbols). Cells were then washed and the medium replaced with medium containing 2 μM of doxorubicin (A) or [^3H]-paclitaxel (B). The cells were then trypsinized and drug accumulation measured by flow cytometry (A) or liquid scintillation counting (B) at indicated time points. The figures are representative of three independent experiments.
# MCF-7 cells [2] = assay: Flow cytometric sub-G1 DNA content, MCF-7; format: cell-based, human; conditions: 10 nM paclitaxel or 2 μM doxorubicin
# Experimental: For flow cytometric analysis, cells at about 50% to 60% confluence were released from their flasks by trypsin treatment and washed with PBS. After centrifugation at 1000 rpm for 5 min, cells were then fixed by resuspension in 75% ethanol for 2 hours, collected by centrifugation, and resuspended in PI staining solution (see above) for 1 h. For each sample, approximately 2×10^4 cells were analyzed using a Beckman Coulter Epics® Elite flow cytometer. Fluorescence intensity upon stimulation with an argon-ion laser at 488 nm was measured using the PMT4 channel (625DL filter) and plotted against cell number. The percentage of cells with a sub-G1 DNA content was determined by the flow cytometer, adjusting the gates such that only cells with a fluorescence lower than the peak for untreated cells in G1 are counted (see FIG. 4).
# MCF-7TAX cells [3] = assay: Drug uptake, MCF-7TAX; format: cell-based, human; conditions: 2 μM doxorubicin or [3H]-paclitaxel
# Experimental: as §1
# MCF-7 cells [4] = assay: Clonogenic assay, MCF-7 cells; format: cell-based, human; conditions: Homo sapiens, MCF7, 24 h drug, calphostin C light-activated 2 h, read-out: IC50 (concentration required to kill or inhibit the growth of 50% of cells)
# Experimental: (§2) The breast cancer cell line MCF-7 (lot HTB-22) was obtained from the American […] (ATCC) and maintained in Dulbecco's H21 medium (MEM) supplemented with 10% Fetal Bovine Serum (FBS) (HyClone, Logan, Utah) in a humidified atmosphere containing 5% CO2 at 37° C. To establish drug resistant cell lines, MCF-7 cells were grown in the presence of either paclitaxel or doxorubicin, beginning at a concentration 1000-fold below that required to kill 50% of the cells (the IC50). The drug concentration was increased 3-fold every two weeks (two passages), with an aliquot of the cells removed for storage in liquid nitrogen before each increase in concentration. Dose escalation continued until all cells died, after which the cells able to tolerate the highest concentration of drug were thawed for subsequent study. In this way, paclitaxel-resistant (MCF-7TAX) and doxorubicin-resistant (MCF-7DOX) cell lines were established. The IC50 for each drug was determined using a clonogenic assay as outlined below. The drug resistant cells were kept in culture in the presence of the maximally tolerated drug dose. Before each experiment, the cell lines were grown for two days in the absence of drug after which fresh medium containing either calphostin C (Sigma Laboratories, Oakville, ON), doxorubicin (Adriamycin PFS®, USP, Mississauga, ON) or paclitaxel (Taxol, Bristol-Myers Squibb, Montreal, QC) was added at the concentrations indicated.
# (§3) The sensitivity of MCF-7, MCF-7TAX and MCF-7DOX cells to calphostin C, paclitaxel or doxorubicin was determined using a clonogenic assay. Briefly, 2.5×10^5 cells were seeded into 25 cm^2 tissue culture flasks in Dulbecco's H21 medium supplemented with 10% FBS. The cells were allowed to grow overnight, after which the medium was removed and replaced with medium containing varying concentrations of paclitaxel, doxorubicin, or calphostin C (after 2 hours of light exposure to activate the molecule). […] The colonies present in 5 randomly selected fields were then counted by visual inspection. […]
# [5] = tested on: MCF-7DOX (doxorubicin-resistant) cells; assay: Clonogenic assay, MCF-7DOX cells; format: cell-based, human; conditions: for fold resistance / lower sensitivity compared to MCF-7 cells: MCF-7DOX vs MCF-7
# Experimental: as §2
# The sensitivity of MCF-7, MCF-7TAX and MCF-7DOX cells to calphostin C, paclitaxel or doxorubicin was determined using a clonogenic assay. Briefly, 2.5×10^5 cells were seeded into 25 cm^2 tissue culture flasks in Dulbecco's H21 medium supplemented with 10% FBS. The cells were allowed to grow overnight, after which the medium was removed and replaced with medium containing varying concentrations of paclitaxel, doxorubicin, or calphostin C (after 2 hours of light exposure to activate the molecule). After 24 hours, the medium (including any floating cells) was transferred to 14 ml screw-capped tubes and centrifuged at 1000 rpm for 10 min. The adherent cells were then released from their flasks by trypsin treatment and suspended in 10 ml of H21 medium. The cell suspension was transferred to the previous tube and all cells harvested by centrifugation. The cell pellet was washed one more time with drug-free medium and resuspended in 300 μl of normal growth medium containing FBS. The cells were then added to 2.7 ml of a methylcellulose solution. The methylcellulose medium was prepared by combining 70 ml of a 2.6% (w/v) methylcellulose solution [Shin-Etsu Chemical Co., Tokyo, Japan] in Iscove's medium (Princess Margaret Hospital, Toronto, ON) with 30 ml of FBS. Three ml syringes equipped with a 16-gauge needle were used for transferring the viscous medium. The mixture was vigorously vortexed for 10 s to ensure an even distribution of cells within the viscous medium. The vortexed samples were then allowed to sit for 30 min to remove air bubbles. A 1.2 ml aliquot of the cell suspension was then transferred to a 6-well plate and the cells allowed to grow until colonies of >50 cells were visible by light microscopy for the various cell lines in the absence of drug. The colonies present in 5 randomly selected fields were then counted by visual inspection.
# Calphostin C (Sigma Laboratories, Oakville, ON) was prepared as a 100 μM stock solution in dimethylsulfoxide (Sigma Laboratories, Oakville, ON) and stored at −70° C. in 100 μl aliquots. […]
# MCF-7DOX cells [6] = assay: Microscopic cell morphology, MCF-7DOX; format: cell-based, human; conditions: 2 μM doxorubicin, 24 h
# Experimental: (§4) For microscopic observation, cells were seeded onto standard glass coverslips in 10 cm tissue culture plates with 10 ml of H21 medium and grown for 2 days until 40-50% confluence was obtained. After treatment with paclitaxel, doxorubicin or calphostin C, the cells on the glass coverslips were washed twice with PBS (2.7 mM KCl, 1.0 mM KH2PO4, 137 mM NaCl, 10 mM Na2HPO4, pH 7.4) and stained with acridine orange/ethidium bromide (each at 4 μg/ml in PBS) for 10 min at 37° C.. The coverslips were then washed three times in PBS and mounted onto standard glass slides for morphological evaluation. For propidium iodide (PI) staining, the cells on coverslips were washed twice with PBS and fixed in methanol (cooled to −20° C.) for 20 min. Thirty μl of propidium iodide (PI) staining solution (100 μg/ml PI, 0.1% sodium citrate, 100 μg/ml RNase A and 0.3% Nonidet P-40) were then applied to the coverslips for 5 min. […] The cells were then examined using a Zeiss Axiovert 100 inverted fluorescence microscope. […] For each sample, the number of dead cells was determined by visualization after ethidium bromide staining, whereby only dead cells which have lost membrane integrity allow entry of cell-impermeable ethidium bromide into cells to complex with DNA and induce bright red fluorescence. […] The images were recorded and overlayed using Northern Eclipse software (Empix Imaging Inc., Mississauga, ON).
# [7] = tested on: caspase-8 and PARP in Jurkat cells; assay: Immunoblotting of apoptosis markers, Jurkat (positive control); format: cell-based; conditions: 3 μg/ml etoposide, 24 hours
# Experimental: FIG. 9 illustrates the effect of calphostin C on caspase 8 cleavage, PARP cleavage, and cytochrome C release in MCF-7, MCF-7FDOX, and MCF-7TAX cells. The MCF-7, MCF-7FDOX, and MCF-7TAX cell lines were incubated with (+) or without (−) 100 nM calphostin C, after which whole cell extracts were monitored for caspase-8 and cytochrome C levels by immunoblotting as described in Materials and Methods. A similar experiment was also performed, except that mitochondrial (M) and cytosolic (C) fractions were prepared as described in Materials and Methods to monitor by immunoblotting the release of cytochrome C from mitochondria into the cytosol in response to calphostin C. As positive controls, similar experiments were conducted using Jurkat cells, with (+) or without (−) the addition of 3 μg/ml etoposide for 24 hours.
# Extraction of proteins from whole cells was performed using RIPA buffer (1% NP40, 0.5% sodium deoxycholate, 0.1% SDS, 1 Complete™ protease inhibitor tablet in 50 ml of PBS). Prior to use, the RIPA buffer (50 ml) was supplemented with 500 μl each of both 100 mM sodium orthovanadate and 10 mg/ml phenylmethylsulfonyl fluoride. Cultured cells were grown as a monolayer and allowed to reach 70-90% confluence in 10 cm tissue culture plates. […]
# MCF-7 cells [8] = assay: Microscopic cell morphology (bright field, AO/EB, PI), MCF-7; format: cell-based, human; conditions: 10 nM paclitaxel, 24 hours, PI staining
# Experimental: as §4
# [9] = tested on: MCF-7TAX (paclitaxel-resistant) cells; assay: Clonogenic assay, MCF-7TAX cells; format: cell-based, human
# Experimental: as §2, §3
# MCF-7TAX cells [10] = assay: Microscopic cell morphology, MCF-7TAX; format: cell-based, human; conditions: 10 nM paclitaxel, 24 h
# Experimental: as §4
"IC50 ([5]; Homo sapiens, MCF7-DOX, MCF-7DOX cells, 24 h drug, calphostin C light-activated 2 h) [nM]","IC50 ([9]; Homo sapiens, MCF-7TAX cells, 24 h drug, calphostin C light-activated 2 h) [nM]",fold higher IC50 than for MCF-7 cells ([9]; MCF-7TAX vs MCF-7) [fold],Compound,drug uptake compared to MCF-7 cells (MCF-7DOX cells [1]),time of large increase in number of cells with sub-G1 DNA content after drug administration (MCF-7 cells [2]),drug uptake compared to MCF-7 cells (MCF-7TAX cells [3]),IC50 (MCF-7 cells [4]) [nM],fold resistance / lower sensitivity compared to MCF-7 cells [5],change in morphology over untreated cells (MCF-7DOX cells [6]),caspase-8 and PARP cleavage [7],percentage of adherent cells multinucleated (MCF-7 cells [8]),change in morphology over untreated cells (MCF-7TAX cells [10])
600,,,COc1cccc2c1C(=O)c1c(O)c3c(c(O)c1C2=O)C[C@@](O)(C(=O)CO)C[C@@H]3O[C@H]1C[C@H](N)[C@H](O)[C@H](C)O1 [doxorubicin],dramatically lower,approximately 24 hours,dramatically lower,10,60 fold,no change in morphology,,,
,,,COc1cc([C@@H]2c3cc4c(cc3[C@@H](O[C@@H]3O[C@@H]5CO[C@@H](C)O[C@H]5[C@H](O)[C@H]3O)[C@H]3COC(=O)[C@H]23)OCO4)cc(OC)c1O [etoposide],,,,,,,could induce caspase-8 and PARP cleavage,,
,27,54,CC(=O)O[C@H]1C(=O)[C@@]2(C)[C@H]([C@H](OC(=O)c3ccccc3)[C@]3(O)C[C@H](OC(=O)[C@H](O)[C@@H](NC(=O)c4ccccc4)c4ccccc4)C(C)=C1C3(C)C)[C@]1(OC(C)=O)CO[C@@H]1C[C@@H]2O [paclitaxel],dramatically lower,approximately 24 hours,dramatically lower,0.5,approximately 4000 fold,,,over 60%,no change in morphology
